The results in this text go back to ChEMBL document CHEMBL1138963, “Design, synthesis, and pharmacological evaluation of R/S-3,4-dihydro-2,2-dimethyl- 6-halo-4-(phenylaminocarbonylamino)-2H-1-benzopyrans: toward tissue-selective pancreatic beta-cell KATP channel openers structurally related to (+/-)-cromakalim” (J Med Chem, 2006).

The subject of test [1] is Pancreatic beta cell. The test can be described thus: Residual insulin release in Wistar rat pancreatic islet beta cells in presence of glucose at 10 uM. In kind it is functional.
The species named for test [2] is Rattus norvegicus. The experiment in a line: Myorelaxant activity against KCL-induced contraction of Wistar rat aortic rings. In kind it is functional. As to conditions: Aorta.
Test [3] concerns Pancreatic beta cell. The experiment in a line: Residual insulin release in Wistar rat pancreatic islet beta cells in presence of glucose at 1 uM. The class given is functional.
The subject of test [4] is Pancreatic beta cell. The test can be described thus: Inhibition of insulin release in Wistar rat pancreatic islet beta cells. In kind it is functional, cell-based.
For test [5], the system named is Pancreatic beta cell. The experiment in a line: Selectivity ratio, IC50 for Wistar rat pancreatic islet beta cells/EC50 for aortic rings. In kind it is functional.

pEC50, pIC50: −log10 of the molar value.

Consider `CC1(C)CC(NC(=O)Nc2cccc(Cl)c2)c2cc(Br)ccc2O1` (stereo not drawn), for which the results for the Activity in test [1] and in test [3] were 28.6% and 91.5%, respectively. The negative logarithm of the EC50 (pEC50) – broadly, the EC50 on a negative log10 scale, so that one unit is a factor of ten – in test [2] was below 4.52. In addition, the pIC50 (in general, the negative decadic logarithm of the IC50, by convention in mol/L) in test [4] is 5.39. For the same compound, the Selectivity ratio in test [5] is given as below 0.14.

Regarding `CC1(C)CC(NC(=O)Nc2ccccc2Cl)c2cc(Br)ccc2O1` (stereo not drawn), in test [1], the Activity stood at 41.8%. Moreover, in test [2], the negative-log EC50 (pEC50) was below 4.52.

As for `Cc1ccc(NC(=O)NC2CC(C)(C)Oc3ccc(Cl)cc32)cc1` (stereo not drawn), the Activity in test [1] stood at 69.5%. Moreover, the pEC50 in test [2] is below 4.52.

For the compound `Cc1cccc(NC(=O)NC2CC(C)(C)Oc3ccc(Br)cc32)c1` (stereo not drawn), the Activity in test [1] is given as 63.4%. In test [2], this compound showed a pEC50 below 5.00.

As for `CC1(C)CC(NC(=O)Nc2ccccc2Cl)c2cc(Cl)ccc2O1` (stereo not drawn), the Activity in test [1] was determined as 40.3%. The negative-log EC50 (pEC50) in test [2] is below 3.52.

For `COc1cccc(NC(=O)NC2CC(C)(C)Oc3ccc(F)cc32)c1` (stereo not drawn), the Activity in test [1] turned out to be 66.6%. In test [2], this compound gave a pEC50 below 5.00.

On to `Cc1ccc(NC(=O)NC2CC(C)(C)Oc3ccc(F)cc32)cc1` (stereo not drawn), for which, in test [1], the Activity came out at 70.6%. For the same compound, in test [2], the negative logarithm of the EC50 (pEC50) is below 4.52.

Turning to `CC1(C)CC(NC(=O)Nc2ccccc2)c2cc(Br)ccc2O1` (stereo not drawn), the Activity in test [1] is 75.9%. The pEC50 in test [2] was 5.64.

Turning to `COc1ccc(NC(=O)NC2CC(C)(C)Oc3ccc(F)cc32)cc1` (stereo not drawn), the Activity in test [1] is on record as 89%. This compound also had a negative-log EC50 (pEC50) in test [2] of 4.81.

As for `COc1ccccc1NC(=O)NC1CC(C)(C)Oc2ccc(Br)cc21` (stereo not drawn), the Activity in test [1] stood at 72.8%. The same compound gave a pEC50 in test [2] below 5.00.

As to `COc1ccc(NC(=O)NC2CC(C)(C)Oc3ccc(Cl)cc32)cc1` (stereo not drawn), in test [1], the Activity was found to be 79.3%. Also, in test [2], the pEC50 is below 4.52.

As to `COc1cccc(NC(=O)NC2CC(C)(C)Oc3ccc(Cl)cc32)c1` (stereo not drawn), the Activity in test [1] amounted to 84%. This compound showed a pEC50 in test [2] below 5.00.

Regarding `Cc1ccccc1NC(=O)NC1CC(C)(C)Oc2ccc(Br)cc21` (stereo not drawn), the Activity in test [1] is 79.5%. This compound had a pEC50 in test [2] below 4.52.

In the case of `Cc1cccc(NC(=O)NC2CC(C)(C)Oc3ccc(F)cc32)c1` (stereo not drawn), the Activity in test [1] was found to be 75.2%. This compound gave a pEC50 in test [2] below 4.52.

For the compound `COc1ccc(NC(=O)NC2CC(C)(C)Oc3ccc(Br)cc32)cc1` (stereo not drawn), in test [1], the Activity came out at 79.2%. The same compound showed a pEC50 in test [2] below 5.00.

Turning to `Cc1cccc(NC(=O)NC2CC(C)(C)Oc3ccc(Cl)cc32)c1` (stereo not drawn), the Activity in test [1] is listed as 65.8%. In addition, the pEC50 in test [2] is below 5.00.

As for `CC1(C)CC(NC(=O)Nc2ccccc2Cl)c2cc(F)ccc2O1` (stereo not drawn), the Activity in test [1] is 51.4%. In test [2], this compound showed a pEC50 below 4.52.

`CC1(C)CC(NC(=O)Nc2ccc(Cl)cc2)c2cc(F)ccc2O1` (stereo not drawn): the Activity in test [1] came to 22.8%; in test [3] it was 91.4%. Besides, the pEC50 in test [2] was below 4.52. In test [4], this compound had a negative logarithm of the IC50 (pIC50) of 5.44. Moreover, in test [5], the Selectivity ratio is below 0.12.

Turning to `CC1(C)CC(NC(=O)Nc2cccc(Cl)c2)c2cc(F)ccc2O1` (stereo not drawn), the Activity in test [1] is 28%; in test [3] it was 86%. This compound also gave a negative-log EC50 (pEC50) in test [2] below 3.52. In test [4], this compound had a negative-log IC50 (pIC50) of 5.44. Besides, the Selectivity ratio in test [5] was below 0.01.

For the compound `COc1cccc(NC(=O)NC2CC(C)(C)Oc3ccc(Br)cc32)c1` (stereo not drawn), in test [1], the Activity stood at 73.5%. Further, the pEC50 in test [2] was below 5.00.

With `Cc1ccccc1NC(=O)NC1CC(C)(C)Oc2ccc(F)cc21` (stereo not drawn), the Activity in test [1] was 79%. This compound had a pEC50 in test [2] below 4.52.

In the case of `Cc1ccccc1NC(=O)NC1CC(C)(C)Oc2ccc(Cl)cc21` (stereo not drawn), the Activity in test [1] is given as 85%. In addition, the pEC50 in test [2] is below 5.00.

Take `CC1(C)CC(NC(=O)Nc2ccccc2)c2cc(Cl)ccc2O1` (stereo not drawn): the Activity in test [1] came to 87.7%. The compound also showed a pEC50 in test [2] of 5.11.

Consider `COc1ccccc1NC(=O)NC1CC(C)(C)Oc2ccc(F)cc21` (stereo not drawn), for which, in test [1], the Activity is on record as 84.4%. This compound also showed a negative-log EC50 (pEC50) in test [2] below 5.00.

On to `CC1(C)CC(NC(=O)Nc2ccccc2)c2cc(F)ccc2O1` (stereo not drawn), for which the Activity in test [1] was 83.8%. The same compound showed a negative-log EC50 (pEC50) in test [2] of 4.77.

As to `Cc1ccc(NC(=O)NC2CC(C)(C)Oc3ccc(Br)cc32)cc1` (stereo not drawn), the Activity in test [1] is 72.9%. Further, the pEC50 in test [2] was below 4.52.

Regarding `CC1(C)CC(NC(=O)Nc2ccc(Cl)cc2)c2cc(Br)ccc2O1` (stereo not drawn), the Activity in test [1] is listed as 25.7%; in test [3], 92.2%. For the same compound, the pEC50 in test [2] is below 3.52. Besides, the negative-log IC50 (pIC50) in test [4] was 5.41. The Selectivity ratio in test [5] is below 0.01.

As to `COc1ccccc1NC(=O)NC1CC(C)(C)Oc2ccc(Cl)cc21` (stereo not drawn), the Activity in test [1] was found to be 94.6%. For the same compound, the pEC50 in test [2] was below 5.00.

On to `CC1(C)Oc2ccc(C#N)cc2C(N2CCCC2=O)C1O` (racemic) [CROMAKALIM], for which the Activity in test [1] was determined as 94.4%; in test [3] it was 95.3%. Further, in test [2], the negative logarithm of the EC50 (pEC50) is 6.89. In addition, the negative logarithm of the IC50 (pIC50) in test [4] was below 4.00. For the same compound, the Selectivity ratio in test [5] was above 769.23.
